Laboratory results: US6469008B2, “(R)-hydroxynefazodone antipsychotic therapy” (Sepracor Inc., priority 1999, dated 2002)

Key:
5-HT2B = molecular target: T1, 5-HT2B (Homo sapiens, UniProt P41595); assay: 5-HT2B receptor binding; details: read-out: Serotonin Receptor Binding 5-HT2B (IC50)
T1 construct: host or cells: membrane preparations
Protocol: (§1) Dopamine and serotonin receptor binding assays were performed in a standard manner with the incubation of membrane preparations in an assay buffer in the presence of a known radioactively labeled specific ligand for the receptor subtypes. Nonspecific binding was determined by assessing binding in the presence of excess ligand. Specific binding was measured as the total labeled ligand bound after the nonspecific binding was subtracted. The effect of the tested agents was measured by determining the competition for the receptor binding across a concentration range. Subsequently, an IC50 was determined for the agents tested. More specific details are provided below for several of the assays performed.

5-HT1B = molecular target: T2, 5-HT1B (Homo sapiens, UniProt P28222); assay: 5-HT1B receptor binding; details: read-out: Serotonin Receptor Binding 5-HT1B (IC50)
T2 construct: host or cells: membrane preparations
Protocol: as §1

D1 = molecular target: T3, D1 (Homo sapiens, UniProt P21728); assay: Dopamine D1 receptor binding
T3 construct: host or cells: membrane preparations
Protocol: as §1

[1] = molecular target: T4, norepinephrine uptake by rat hypothalamus synaptosomes (Rattus norvegicus, UniProt Q63380); assay: Norepinephrine uptake functional assay; format: biochemical; details: [3H]-norepinephrine, read-out: Monoamine Neuronal Transport NE uptake (IC50)
T4 construct: tissue Cerep; host or cells: male Wistar rat hypothalamus synaptosomes
Protocol: Norepinephrine uptake functional assay
Characterization of norepinephrine uptake is performed using synaptosomes isolated at Cerep in a 0.32 M sucrose buffer from a male Wistar rat hypothalamus. The uptake of radiolabeled norepinephrine by synaptosomes (100 μg of proteins/point) is allowed by incubating them for 20 minutes at 37° C. in presence of test compounds and [3H]-norepinephrine (0.1 μCi/point). The experiment is performed in a deep well.
Synaptosomes and [3H]-norepinephrine are prepared in a Krebs buffer pH 7.4 containing 25 mM NaHCO3, 11 mM glucose and 50 μM ascorbic acid. This incubation buffer is oxygenated during 5 minutes before incubation. Basal control is incubated for 20 minutes at 4° C. in order to avoid any uptake. Following this incubation the uptake is stopped by filtration through an “unifilter 96-wells GFB” Packard plate washed with Krebs buffer containing 25 mM NaHCO3 in order to eliminate the free [3H]-norepinephrine. The radioactivity associated to the synaptosomes retained onto the unifilter corresponding to the uptake is then measured with a microplate scintillation counter Topcount, Packard using a scintillation liquid microscint 0, Packard.
[See Perovics and Müiller, op.cit. (1995).]

[2] = molecular target: T5, serotonin uptake by rat cortex synaptosomes (Rattus norvegicus, UniProt P31652); assay: Serotonin uptake functional assay; format: biochemical; details: [3H]5-hydroxytryptamin, read-out: Monoamine Neuronal Transport 5-HT Uptake (IC50)
T5 construct: from tissue; host or cells: male Wistar rat cortex synaptosomes
Protocol: Serotonin uptake functional assay
Characterization of serotonin uptake is performed using synaptosomes isolated in a 0.32 M sucrose buffer from a male Wistar rat cortex. The uptake of radiolabelled serotonin by synaptosomes (100 μg of proteins/point) is allowed by incubating them for 15 minutes at 37° C. in presence of test compounds and [3H]5-hydroxytryptamin (0.1 μCi/point). The experiment is performed in a deep well.
Synaptosomes and [3H]5-hydroxytryptamin are prepared in a Krebs buffer pH 7.4 containing 25 mM NaHCO3, 11 mM glucose and 50 μM ascorbic acid. This incubation buffer is oxygenated during 5 minutes before incubation. Basal control is incubated for 15 minutes at 4° C. in order to avoid any uptake. Following this incubation the uptake is stopped by filtration through an “unifilter 96-wells GF”Packard plate washed with Krebs buffer containing 25 mM NaHCO3 in order to eliminate the free [3H]5-hydroxytryptamin. The radioactivity associated to the synaptosomes retained onto the unifilter corresponding to the uptake is then measured with a microplate scintillation counter Topcount, Packard using a scintillation liquid microscint 0, Packard.
[See Perovics and Müiller “Pharmacological profile of hypericum extract: effect on serotonin uptake by postsynaptic receptors”, Arzeim Forsch/Drug Res. 45 1145-1148 (1995).]

5-HT6 = molecular target: T6, 5-HT6 (Homo sapiens, UniProt P50406); assay: 5-HT6 receptor binding; details: read-out: Serotonin Receptor Binding 5-HT6 (IC50)
T6 construct: host or cells: membrane preparations
Protocol: as §1

5-HT7 = molecular target: T7, 5-HT7 (Homo sapiens, UniProt P34969); assay: 5-HT7 receptor binding; details: read-out: Serotonin Receptor Binding 5-HT7 (IC50)
T7 construct: host or cells: membrane preparations
Protocol: as §1

5-HT1A receptors = molecular target: T8, 5-HT1A receptors (Homo sapiens, UniProt P08908); assay: 5-HT1A receptor binding; parameters: expressed in transfected cells; host or cells: CHO cells; details: [3H]8-OH-DPAT, transfected CHO cell membranes; read-out: Serotonin Receptor Binding 5-HT1A (IC50)
T8 sequence (P08908 1-422): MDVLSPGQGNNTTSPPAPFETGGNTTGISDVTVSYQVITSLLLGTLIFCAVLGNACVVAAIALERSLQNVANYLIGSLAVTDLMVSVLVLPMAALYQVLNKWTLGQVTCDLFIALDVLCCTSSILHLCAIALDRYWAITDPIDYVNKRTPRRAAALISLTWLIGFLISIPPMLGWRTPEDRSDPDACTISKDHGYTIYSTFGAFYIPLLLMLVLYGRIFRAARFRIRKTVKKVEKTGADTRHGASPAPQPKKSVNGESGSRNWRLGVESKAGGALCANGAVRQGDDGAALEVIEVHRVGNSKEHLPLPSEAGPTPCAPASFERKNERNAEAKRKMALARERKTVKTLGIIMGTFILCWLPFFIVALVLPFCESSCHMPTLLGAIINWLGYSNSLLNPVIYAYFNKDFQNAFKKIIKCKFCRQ
Protocol: as §1
Aliquots of transfected CHO cell membrane preparations corresponding to 7-15 μg protein are incubated for 60 min at 22° C. in 250 μl of 50 mM Tris-HCl buffer (pH 7.4) containing 10 mM MgSO4, 0.5 mM EDTA, 0.3 nM [^3H]8-OH-DPAT and increasing concentrations of the competing drugs. Nonspecific binding is determined in the presence of 10 μM 8-OH-DPAT. After incubation, the samples are filtered rapidly under vacuum through glass fiber filters (GF/B, Packard) and rinsed several times with ice-cold 50 mM Tris-HCl using a cell harvester (Packard). Bound radioactivity is measured with a scintillation counter (Topcount, Packard) using a liquid scintillation cocktail (Microscint 0, Packard). The reference compound for this assay is 8-OH-DPAT.

T4 sequence (Q63380 1-617): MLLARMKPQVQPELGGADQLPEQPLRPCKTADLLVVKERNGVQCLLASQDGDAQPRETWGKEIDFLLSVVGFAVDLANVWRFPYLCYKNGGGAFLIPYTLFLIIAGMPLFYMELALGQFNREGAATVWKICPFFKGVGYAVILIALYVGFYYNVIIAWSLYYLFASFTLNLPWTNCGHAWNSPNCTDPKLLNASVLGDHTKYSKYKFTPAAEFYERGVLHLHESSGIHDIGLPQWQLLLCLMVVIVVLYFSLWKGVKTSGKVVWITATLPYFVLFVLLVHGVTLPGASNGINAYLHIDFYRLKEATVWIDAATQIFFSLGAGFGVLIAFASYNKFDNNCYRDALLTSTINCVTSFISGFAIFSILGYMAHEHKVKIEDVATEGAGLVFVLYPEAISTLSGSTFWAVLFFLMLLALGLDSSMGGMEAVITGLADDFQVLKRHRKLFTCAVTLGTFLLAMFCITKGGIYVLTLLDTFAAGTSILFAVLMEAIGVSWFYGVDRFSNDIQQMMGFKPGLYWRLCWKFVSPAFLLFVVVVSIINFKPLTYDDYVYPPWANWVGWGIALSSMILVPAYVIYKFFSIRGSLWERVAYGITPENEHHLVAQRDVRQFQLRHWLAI
T2 sequence (P28222 whole entry, species assumed): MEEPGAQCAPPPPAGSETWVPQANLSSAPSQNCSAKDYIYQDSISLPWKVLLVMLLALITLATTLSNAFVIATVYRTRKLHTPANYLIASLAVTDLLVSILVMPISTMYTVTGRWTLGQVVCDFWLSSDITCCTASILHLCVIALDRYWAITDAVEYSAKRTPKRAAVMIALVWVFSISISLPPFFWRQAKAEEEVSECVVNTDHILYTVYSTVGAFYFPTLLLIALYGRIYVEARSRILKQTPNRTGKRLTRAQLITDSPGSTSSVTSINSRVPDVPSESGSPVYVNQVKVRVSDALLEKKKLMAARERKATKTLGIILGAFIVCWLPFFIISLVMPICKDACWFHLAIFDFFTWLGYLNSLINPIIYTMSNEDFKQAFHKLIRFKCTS
T1 sequence (P41595 whole entry, species assumed): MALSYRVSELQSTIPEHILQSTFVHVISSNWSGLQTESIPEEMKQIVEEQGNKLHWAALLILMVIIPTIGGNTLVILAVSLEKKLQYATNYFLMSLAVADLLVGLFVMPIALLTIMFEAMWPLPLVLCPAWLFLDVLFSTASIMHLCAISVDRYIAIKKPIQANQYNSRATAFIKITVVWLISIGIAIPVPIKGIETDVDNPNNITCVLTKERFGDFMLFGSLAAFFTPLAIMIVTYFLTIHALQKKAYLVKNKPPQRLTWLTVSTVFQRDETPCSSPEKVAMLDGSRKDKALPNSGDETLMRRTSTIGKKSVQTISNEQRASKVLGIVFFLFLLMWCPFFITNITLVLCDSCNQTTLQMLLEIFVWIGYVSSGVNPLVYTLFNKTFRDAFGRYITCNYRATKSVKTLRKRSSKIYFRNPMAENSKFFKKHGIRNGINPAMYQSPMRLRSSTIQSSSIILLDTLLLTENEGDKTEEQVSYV
T6 sequence (P50406 whole entry, species assumed): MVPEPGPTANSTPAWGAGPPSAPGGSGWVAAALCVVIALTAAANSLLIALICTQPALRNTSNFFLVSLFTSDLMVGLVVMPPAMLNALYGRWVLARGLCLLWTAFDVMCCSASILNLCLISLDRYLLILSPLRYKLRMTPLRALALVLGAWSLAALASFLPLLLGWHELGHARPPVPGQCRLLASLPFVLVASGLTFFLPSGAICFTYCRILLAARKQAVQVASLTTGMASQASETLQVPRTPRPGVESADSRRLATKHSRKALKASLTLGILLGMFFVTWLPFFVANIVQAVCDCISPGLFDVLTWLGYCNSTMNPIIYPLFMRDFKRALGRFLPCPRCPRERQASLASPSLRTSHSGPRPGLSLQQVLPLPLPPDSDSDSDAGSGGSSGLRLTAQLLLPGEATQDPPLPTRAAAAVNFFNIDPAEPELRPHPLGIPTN
T5 sequence (P31652 whole entry): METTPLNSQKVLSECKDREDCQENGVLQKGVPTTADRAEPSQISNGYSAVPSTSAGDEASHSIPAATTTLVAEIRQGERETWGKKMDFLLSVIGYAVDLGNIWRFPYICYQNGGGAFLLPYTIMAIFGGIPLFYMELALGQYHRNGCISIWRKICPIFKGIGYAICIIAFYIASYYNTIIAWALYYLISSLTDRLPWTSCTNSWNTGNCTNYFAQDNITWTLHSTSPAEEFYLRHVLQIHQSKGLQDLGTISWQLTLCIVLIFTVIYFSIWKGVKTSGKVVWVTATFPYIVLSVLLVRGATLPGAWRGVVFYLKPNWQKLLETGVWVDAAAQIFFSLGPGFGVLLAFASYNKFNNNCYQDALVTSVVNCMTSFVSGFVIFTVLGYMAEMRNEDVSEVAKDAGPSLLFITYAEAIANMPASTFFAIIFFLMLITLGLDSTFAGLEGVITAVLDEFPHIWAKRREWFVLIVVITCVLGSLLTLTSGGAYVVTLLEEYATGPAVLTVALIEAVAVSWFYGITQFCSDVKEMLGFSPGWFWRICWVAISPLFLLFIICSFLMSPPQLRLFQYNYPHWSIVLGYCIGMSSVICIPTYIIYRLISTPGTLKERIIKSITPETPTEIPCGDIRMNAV
T7 sequence (P34969 whole entry, species assumed): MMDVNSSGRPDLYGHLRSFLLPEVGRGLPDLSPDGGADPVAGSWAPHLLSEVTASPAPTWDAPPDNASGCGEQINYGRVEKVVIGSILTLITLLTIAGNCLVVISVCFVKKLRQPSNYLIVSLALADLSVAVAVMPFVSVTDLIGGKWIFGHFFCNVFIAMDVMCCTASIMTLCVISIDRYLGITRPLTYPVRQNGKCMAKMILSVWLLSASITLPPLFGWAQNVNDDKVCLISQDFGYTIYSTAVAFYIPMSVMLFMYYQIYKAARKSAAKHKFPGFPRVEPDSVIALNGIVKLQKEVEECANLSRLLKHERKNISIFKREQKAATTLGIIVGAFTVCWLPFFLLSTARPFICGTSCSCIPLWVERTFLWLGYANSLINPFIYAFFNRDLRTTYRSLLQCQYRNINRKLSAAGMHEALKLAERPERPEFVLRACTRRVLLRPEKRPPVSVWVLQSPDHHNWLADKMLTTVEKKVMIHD
T3 sequence (P21728 whole entry): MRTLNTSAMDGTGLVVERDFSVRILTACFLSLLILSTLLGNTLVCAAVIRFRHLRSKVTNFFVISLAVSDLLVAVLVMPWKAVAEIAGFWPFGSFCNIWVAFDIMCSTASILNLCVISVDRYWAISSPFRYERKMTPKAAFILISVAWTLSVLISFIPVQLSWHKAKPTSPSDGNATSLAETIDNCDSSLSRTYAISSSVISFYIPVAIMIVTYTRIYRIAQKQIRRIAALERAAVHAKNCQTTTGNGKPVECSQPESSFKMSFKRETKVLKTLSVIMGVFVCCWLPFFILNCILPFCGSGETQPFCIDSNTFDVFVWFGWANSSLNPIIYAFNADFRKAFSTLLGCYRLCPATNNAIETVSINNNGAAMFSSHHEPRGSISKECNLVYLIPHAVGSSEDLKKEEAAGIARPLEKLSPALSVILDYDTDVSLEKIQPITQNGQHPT

IC50 (5-HT2B) [nM]	IC50 (5-HT1B) [µM]	IC50 (D1) [nM]	IC50 [1] [nM]	IC50 [2] [nM]	IC50 (5-HT6) [nM]	IC50 (5-HT7) [nM]	IC50 (5-HT1A receptors) [nM]	SMILES
41	2.84	2310	1500	790	489	60	249	C[C@H](O)c1nn(CCCN2CCN(c3cccc(Cl)c3)CC2)c(=O)n1CCOc1ccccc1 [(S)-OH, (S)-2-{3-[4-(3-Chlorophenyl)-1-piperazinyl]propyl}-4-(2-phenoxyethyl)-5-[1-(hydroxy)-ethyl]-2,4-dihydro-[1,2,4]triazol-3-one]
28	3.61	1690	1200	640	1020	71	496	C[C@@H](O)c1nn(CCCN2CCN(c3cccc(Cl)c3)CC2)c(=O)n1CCOc1ccccc1 [(R)-OH, (R)-hydroxynefazodone]
34	4.55	2270	1000	500	856	61	409	CC(O)c1nn(CCCN2CCN(c3cccc(Cl)c3)CC2)c(=O)n1CCOc1ccccc1 (racemic) [(RS)-OH, 2-[3-[4-(3-chlorophenyl)1-piperazinyl]propyl]-5-(1-hydroxyethyl)-2,4-dihydro-4-(phenoxyethyl)-3H-1,2,4-triazol-3-one, reference compound]
